The source of these data is PMC4742234, “Screening of Drug Metabolizing Enzymes for the Ginsenoside Compound K In Vitro: An Efficient Anti-Cancer Substance Originating from Panax Ginseng” (PLoS ONE, 2016).

The target in this series is CYP2C9 (Homo sapiens, UniProt P11712). In words: Metabolic clearance rate of CK with recombinant CYP2C9 under sulfaphenazole. Format: in vitro ADME. Further details: purchased Cypex Ltd. (U.K.). As to conditions: recombinant CYP2C9, CK 50 μM, sulfaphenazole 1 μM. As for the experimental part: The method was conducted according to our previous study with some modifications. The CYP isoform-specific probe reactions used were phenacetin O-deethylation (for CYP1A2), coumarin 7-hydroxylation (for CYP2A6), tolbutamide 4-hydroxylation (for CYP2C9), metoprolol α-hydroxylation (for CYP2D6), chlorzoxazone 6-hydroxylation (for CYP2E1),S-Mephenytoin 4-hydroxylation (for CYP2C19), and midazolam 1-hydroxylation (for CYP3A4). The kinetic study of CK was conducted with HLMs. A 0.2 mL incubation mixture that consisted of CK (as a substrate), the HLMs (0.5 mg/mL) or CYP isoforms (10 pmol), and 0.1 M sodium phosphate buffer (pH 7.4) was pre-warmed for 5 min at 37°C. The reaction was initiated by the addition of 1 mg/mL triphosphopyridine nucleotide (NADPH). […]
To screen the specific CYP isoform responsible for the CK metabolism, we determined the inhibitory effect of specific inhibitors on the metabolism of CK in the HLMs as described in detail previously. […] The inhibitory effects of the above specific inhibitors on the metabolic clearance rate of CK were evaluated separately to screen the CYP isoforms responsible for the CK metabolism. The relative activity of the CYP isoforms was calculated by dividing the peak area of CK when incubated with the inhibitor by that of CK from the negative controls. […]

Sequence of CYP2C9 (P11712 whole entry, canonical isoform): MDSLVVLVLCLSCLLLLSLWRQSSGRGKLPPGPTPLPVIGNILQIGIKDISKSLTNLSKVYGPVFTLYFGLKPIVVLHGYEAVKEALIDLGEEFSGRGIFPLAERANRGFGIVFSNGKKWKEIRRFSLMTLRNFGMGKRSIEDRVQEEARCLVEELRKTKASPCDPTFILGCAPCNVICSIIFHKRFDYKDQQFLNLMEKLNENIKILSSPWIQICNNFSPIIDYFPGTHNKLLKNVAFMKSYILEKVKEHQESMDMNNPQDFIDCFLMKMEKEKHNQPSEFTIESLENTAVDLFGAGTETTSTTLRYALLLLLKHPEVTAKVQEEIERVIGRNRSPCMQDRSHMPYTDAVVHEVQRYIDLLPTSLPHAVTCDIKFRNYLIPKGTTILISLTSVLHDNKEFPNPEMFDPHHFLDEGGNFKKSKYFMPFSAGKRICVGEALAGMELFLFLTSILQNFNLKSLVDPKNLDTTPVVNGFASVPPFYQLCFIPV

With `CC(C)=CCC[C@](C)(OC1O[C@H](CO)[C@@H](O)[C@H](O)[C@H]1O)[C@H]1CC[C@]2(C)[C@@H]1[C@H](O)C[C@@H]1[C@@]3(C)CC[C@H](O)C(C)(C)[C@@H]3CC[C@]12C` (stereo partly drawn) [CK, 20-O-β-(D-glucopyranosyl)-20(S)-protopanaxadiol], the “MCR of CK, of that of the control” value is reported as 22.0%.
